Experiments:
[1] = in-vitro test of oral rinses' ability to destroy or reduce microbial VSC toxins; details: 30 second exposure
From the text: FIG. 7 is an exemplary table of comparative laboratory text results, and a corresponding graphical representation of the average reduction in […] of each compound listed in the table.
FIG. 7 is an exemplary table of comparative laboratory text results, and a corresponding graphical representation of the average reduction in Volatile Sulfur Compounds of each compound listed in the table. More specifically, the table data and corresponding chart presents the results of controlled laboratory tests conducted on Aug. 11, 2012. The in-vitro tests simulated actual patient-use conditions anticipated in root canal and periodontal procedures. The measurements compare oral rinses based on their ability to destroy or reduce microbial VSC toxins after a 30 second exposure. The tests were completed for a variety of toxins including those produced by Porphyromonas gingivalis, Prevotella intermedia, Tannerella forsythia, Treponema socranskii, and Streptococcus mitis, all of which are routinely present in the oral cavity during periodontal and endodontic procedures.

[2] = test system: Aggregatibacter actinomycetemcomitans; test: standard Minimum Inhibitory Concentration test; type: cell-based; details: 18 to 24 hour test; CD at 37 parts per million, active for only three minutes
Method: (§1) FIG. 8 is an exemplary table of comparative laboratory test results illustrating Minimum Inhibitor Concentration of CD at a concentration of 37 parts per million versus Chlorhexidine (CHX) in effectiveness to destroy bacteria and yeast.
(§2) FIG. 8 is an exemplary table listing the comparative results of an 18 to 24 hour standard Minimum Inhibitory Concentration test of a chlorhexidine oral rinse solutions' effectiveness in inhibiting growth of bacteria typically found in the oral cavity, and during dental procedures. More specifically, under controlled test conditions of the University of Iowa College of Dentistry, May 15, 2012, a CD rinse solution was tested against and compared to the chlorhexidine (CHX) as shown.
(§3) It should be noted that even when CHX outperformed CD, or performed as well as CD but at lower concentrations, it did so after continuously acting upon the bacteria for a continuous period of 18 to 24 hours; CD on the other hand while the CD tested had been active for only three minutes, yet remarkably continued to inhibit growth for the subsequent testing time period.

[3] = in humans, including rare cases of anaphylactic shock; cited from earlier work
[4] = test system: bacteria typically found in the oral cavity; test: standard Minimum Inhibitory Concentration test, other listed bacteria; type: cell-based; details: 18 to 24 hour MIC test
Method: as §1, §2, §3

[5] = test system: Listeria, E. Coli, Pseudomonas, Salmonella, Staphylococcus, Streptococcus and others; details: within 30-60 seconds; cited from earlier work

Row | Structure (SMILES) | toxin reduction (result in words) [1] | Minimum Inhibitory Concentration, as dilution of rinse inhibiting growth [2] | incidence of hypersensitivity reactions [3] [%] | microbial toxins destroyed (reduction in Volatile Sulfur Compounds) [1] [%] | growth inhibition compared with CHX (result in words) [4] | log reduction [5] [log] | reduction [5] [%]
1 | [H]/N=C(\N/C(=N/[H])NCCCCCCNC(=N)NC(=N)Nc1ccc(Cl)cc1)Nc1ccc(Cl)cc1 [Chlorhexidine, reference compound] | statistically nonsignificant drops | ⅛ | 2 | – | – | – | –
2 | [O][Cl+][O-] [CD, chlorine dioxide] | – | 1/32 | – | 100 | equally well or slightly less well than CHX | 5 | 99.999
